Results taken from patent publication US20240009331A1, “UROKINASE PLASMINOGEN ACTIVATOR RECEPTOR TARGETED RADIOLABELED PEPTIDE CONJUGATES” (CURASIGHT A/S, priority 2020, published 2024).

Molecular target: uPAR H47C-N259C
Assay: SPR inhibition of uPAR binding to immobilized uPA (uPAR H47C-N259C)
Set-up: species or system human
Settings: inhibition of uPAR binding to immobilized prouPA S356A
Procedure: Covalent immobilization of purified human prouPA^S356A was accomplished by injecting 12.5 μg/ml protein dissolved in 10 mM sodium acetate (pH 5.0) over a CM5 chip that had been pre-activated with NHS/EDC (N-ethyl-N′[3-[…])propyl]-carbodiimide), aiming at a surface density of >5000 resonance units (RU) corresponding to 100 fmols/mm^2. After coupling the sensor-chip was deactivated with 1 M ethanolamine. Binding of purified human uPAR as analyte was measured from 4 nM to 0.25 nM at using 10 mM HEPES, 150 mM NaCl, 3 mM EDTA (pH 7.4) containing (v/v) surfactant P20 as running buffer at a flow rate of […]. In between cycles the sensor-chip was regenerated by two consecutive 10-μl injections of 0.1 M acetic acid/HCI (pH 2.5) in 0.5 M NaCl. The inhibition of 3-fold dilutions of the compounds in question was measured for 4 nM uPAR with identical running conditions. All experiments were performed on a BiacoreT200 instrument.
For each inhibition peptide inhibition profile of uPAR binding to immobilized uPA there has been run a preceding standard curve and all calculations are based on the that standard curve.

IC50: 4.5 ± 1.5 µM
SMILES: CC(C)C[C@H](NC(=O)[C@H](Cc1ccc(O)cc1)NC(=O)[C@@H](CCCNC(=N)N)NC(=O)[C@@H](CO)NC(=O)[C@H](Cc1ccccc1)NC(=O)[C@H](CC1CCCCC1)NC(=O)[C@@H](N)CC(=O)O)C(=O)N[C@@H](Cc1c[nH]c2ccccc12)C(=O)N[C@@H](CO)C(=O)O [AE105, DChaFsrYLWS-OH]
